According to article PMC9276676, “Difluoromethylornithine (DFMO) and AMXT 1501 inhibit capsule biosynthesis in pneumococci” (Scientific Reports, 2022):

Columns and labels:
Assay type in all cases: cell-based, Streptococcus pneumoniae
S. pneumoniae D39 = test system: S. pneumoniae D39
Protocol: This was done to directly compare possible changes in intracellular concentrations of polyamines and capsule precursors as a result of DFMO inhibition of polyamine synthesis to the earlier report where polyamine synthesis was affected via gene deletion in TIGR4[24]. […] Cells were harvested (5000×g, 10 min, 4 °C), re-suspended in extraction solvent [40% acetonitrile, 40% methanol, 20% water with formic acid (0.1 M)] and transferred to bead-beater tubes (MP Biomedicals, Irvine, CA, USA). Cells were lysed using a FastPrep-24™ Classic (45 s, 6.5 m/s, RT, 3 times) (MP Biomedicals, Irvine, CA, USA) and incubated on ice (5 min after each spin). TIGR4 lysates were clarified (6000×g, 5 min, 4 °C), and metabolite differentiation and detection were performed using published protocols[28],[29]. Liquid chromatography-mass spectrometry-based (LC–MS) metabolomic analysis was performed with an Agilent Accurate Mass 6230 TOF coupled with an Agilent 1290 LC system using a Cogent Diamond Hydride Type C column. Briefly, the mobile phase consisted of the following: solvent A (ddH2O with 0.2% formic acid) and solvent B (acetonitrile with 0.2% formic acid). The gradient used was as follows: 0–2 min, 85% B; 3–5 min, 80% B; 6–7 min, 75% B; 8–9 min, 70% B; 10–11.1 min, 50% B; 11.1–14 min 20% B; 14.1–24 min 5% B followed by a 10 min re-equilibration period at 85% B at a flow rate of 0.4 mL/min. Mass axis dynamics was calibrated by continuous infusion of a reference mass solution using an isocratic pump. […] Metabolite identities were searched for using a mass tolerance of < 0.005 Da. Metabolite concentrations from the 5 biological replicates were normalized to biomass based on measurement of residual peptide content in individual samples using the Pierce BCA Protein Assay kit (Thermo Fisher Scientific, Waltham, MA, USA). Data were analyzed using Profinder B.07.00 software (Agilent Technologies, Santa Clara, CA, USA). Extracted molecular features detected in the mass analyzer were identified using accurate mass values and used to generate empirical molecular formulae using an in-house metabolite database that included known intermediates, amino acid precursors and polyamines and their derivatives. Statistical analysis of metabolite peak intensity data was performed using MetaboAnalyst 4.0[30]. Data were normalized (quantile), log transformed and significant fold change between WT and DFMO-treated WT were identified by Student’s t-test (p ≤ 0.05).
To measure the polyamines, glucose and glucuronic acid in D39, TSQ Quantum Access triple-quadrupole tandem mass spectrometer (Thermo Fisher Scientific, Waltham, MA, USA) equipped with acquity UPLC system (Waters, Milford, MA, USA) was operated in positive and negative ion mode. Chromatographic separation was performed on Cogent Diamond Hydride HPLC column (2.1 mm × 150 mm, 4 μm) coupled with Congent Diamond Hydride HPLC Guard column (2.0 mm × 10 mm, 4 μm). The flow rate was 500 µL/min, the sample injection volume was 10 µL, and the column temperature was at 40 °C. The mobile phase A was composed of water with 0.1% v/v formic acid, and mobile phase B was composed of acetonitrile with 0.1% v/v formic acid. The gradient condition was 0 min (5% A, 95% B), 1 min (5% A, 95% B), 4.0 min (30% A, 70% B), 6 min (95% A, 5% B), 6.5 min (95% A, 5% B), 7 min (5% A, 95% B), and 10 min (5% A, 95%B). The total run time was 10 min, and the column eluate directed into the mass spectrometer using an electrospray ionization interface in positive and negative modes. The MS conditions were set as follow: spray voltage = 3500 V, vaporizer temperature = 350 °C, sheath gas = 25 psi, auxiliary gas = 10 psi, and capillary temperature = 350 °C. Samples were run in selected reaction monitoring (SRM) mode, and the optimized MS/MS parameters for ionization are given in Table 1.

[1] = test system: S. pneumoniae serotype 4 (TIGR4); assay: DFMO susceptibility and growth in THY (OD600, MIC); parameters: Growthrate: unit not given here
Protocol: (§1) S. pneumoniae serotypes 4 (TIGR4), 2 (D39), 19F (EF3030) and 3 (WU2) were cultured in Todd Hewitt broth supplemented with yeast extract (THY). Supplementation with DFMO ranging from 1.1 to 549 mM was carried out in triplicate in a 96-well plate and incubated at 37 °C and 5% CO2 in a Cytation™ 5 cell imaging multi-mode reader (BioTek, Winooski, VT). The change in optical density at 600 nm (OD600) was measured every hour for 24 h and used to determine the minimum inhibitory concentration (MIC) of DFMO. The optical density data was analyzed using GrowthRates 4.0 software. To determine whether DFMO at sub-MIC is bacteriostatic or lethal to pneumococcal cells, all strains were cultured in the presence or absence of 1/2 MIC DFMO. OD600 was measured every hour and CFU were enumerated on a blood agar plate (BAP) every 2 h over an 8 h incubation period.

[2] = test system: S. pneumoniae serotype 19F (EF3030); assay: DFMO susceptibility and growth in THY (OD600, MIC); parameters: Growthrate: unit not given here
Protocol: as §1

[3] = DFMO 34 mM, agmatine 20 mM, AMXT 1501 7.4 µM, p-value in bracket omitted

Compound: NCCC[C@](N)(C(=O)O)C(F)F [DFMO, α-difluoromethylornithine]
- intracellular glucose (peak intensity) (S. pneumoniae D39; 1/8 MIC DFMO (34 mM), 1/2 MIC AMXT 1501 (7.4 µM)): significantly reduced
- intracellular glucuronic acid (peak intensity) (S. pneumoniae D39; 1/8 MIC DFMO (34 mM), 1/2 MIC AMXT 1501 (7.4 µM), separately or in combination): significantly depleted
- Agmatine, fold change treated D39 /D39 (S. pneumoniae D39; [3]): -1.3 (2.13E05)
- Cadaverine, fold change treated D39 /D39 (S. pneumoniae D39; [3]): -0.8 (0.004)
- Lysine, fold change treated D39 /D39 (S. pneumoniae D39; [3]): -0.2 (0.018)
- N-acetyl spermidine, fold change treated D39 /D39 (S. pneumoniae D39; [3]): -0.6 (0.094)
- N-carbamoyl putrescine, fold change treated D39 /D39 (S. pneumoniae D39; [3]): -1.6 (0.026)
- Ornithine, fold change treated D39 /D39 (S. pneumoniae D39; [3]): 0.4 (0.004)
- Putrescine, fold change treated D39 /D39 (S. pneumoniae D39; [3]): -0.4 (0.015)
- Spermidine, fold change treated D39 /D39 (S. pneumoniae D39; [3]): 0.3 (0.309)
- Spermine, fold change treated D39 /D39 (S. pneumoniae D39; [3]): -0.7 (0.002)
- difference in growth rate in presence or absence of DFMO (GrowthRates software) [1]: did not identify any significant differences
- Growthrate ([1]; DFMO 0.2 µg/µL): 0.055
- Max OD ([1]; DFMO 0.2 µg/µL): 1.583
- Growthrate ([1]; DFMO 0.4 µg/µL): 0.056
- Max OD ([1]; DFMO 0.4 µg/µL): 1.619
- Growthrate ([1]; DFMO 0.8 µg/µL): 0.056
- Max OD ([1]; DFMO 0.8 µg/µL): 1.657
- Growthrate ([1]; DFMO 1.6 µg/µL): 0.057
- Max OD ([1]; DFMO 1.6 µg/µL): 1.695
- Growthrate ([1]; DFMO 3.1 µg/µL): 0.056
- Max OD ([1]; DFMO 3.1 µg/µL): 1.654
- Growthrate ([1]; DFMO 6.3 µg/µL): 0.055
- Max OD ([1]; DFMO 6.3 µg/µL): 1.635
- Growthrate ([1]; DFMO 12.5 µg/µL): 0.056
- Max OD ([1]; DFMO 12.5 µg/µL): 1.560
- Growthrate ([1]; DFMO 25.0 µg/µL): 0.052
- Max OD ([1]; DFMO 25.0 µg/µL): 1.280
- Growthrate ([1]; DFMO 50.0 µg/µL): 0.000
- Max OD ([1]; DFMO 50.0 µg/µL): 0.000
- Growthrate ([1]; DFMO 100.0 µg/µL): 0.000
- Max OD ([1]; DFMO 100.0 µg/µL): 0.000
- difference in growth rate in presence or absence of DFMO (GrowthRates software) [2]: did not identify any significant differences
- Growthrate ([2]; DFMO 0.2 µg/µL): 0.035
- Max OD ([2]; DFMO 0.2 µg/µL): 1.413
- Growthrate ([2]; DFMO 0.4 µg/µL): 0.021
- Max OD ([2]; DFMO 0.4 µg/µL): 1.458
- Growthrate ([2]; DFMO 0.8 µg/µL): 0.037
- Max OD ([2]; DFMO 0.8 µg/µL): 1.485
- Growthrate ([2]; DFMO 1.6 µg/µL): 0.037
- Max OD ([2]; DFMO 1.6 µg/µL): 1.495
- Growthrate ([2]; DFMO 3.1 µg/µL): 0.036
- Max OD ([2]; DFMO 3.1 µg/µL): 1.517
- Growthrate ([2]; DFMO 6.3 µg/µL): 0.035
- Max OD ([2]; DFMO 6.3 µg/µL): 1.538
- Growthrate ([2]; DFMO 12.5 µg/µL): 0.030
- Max OD ([2]; DFMO 12.5 µg/µL): 1.513
- Growthrate ([2]; DFMO 25.0 µg/µL): 0.040
- Max OD ([2]; DFMO 25.0 µg/µL): 1.319
- Growthrate ([2]; DFMO 50.0 µg/µL): 0.000
- Max OD ([2]; DFMO 50.0 µg/µL): 0.000
- Growthrate ([2]; DFMO 100.0 µg/µL): 0.000
- Max OD ([2]; DFMO 100.0 µg/µL): 0.000
